{"source": "patent US12276657B2", "about": "“Detection of PAR in the CSF of patients with Parkinson's disease” (The Johns Hopkins University, priority 2017, dated 2025)", "key": {"primary cortical neurons": {"tested_on": "primary cortical neurons", "experiment": "Cell death of primary cortical neurons, Hoechst and propidium iodide staining", "assay_type": "cell-based, mouse", "details": "for α-syn PFF toxicity (cell death, FIGS. 47 and 48): pre-treated 1 h: ABT-888 10 μM, Z-VAD 20 μM, Nec-1 20 μM, 3-MA 500 μM, α-syn PFF 14 days; for α-syn PFF-mediated cell death (PI staining): inhibitor pre-incubated 1 h (ABT-888 10 μM, AG-014699 1 μM, BMN 673 10 μM), α-syn PFF 5 μg/ml 14 days", "procedure": "SH-SYSY cells (ATCC) were cultured in DMEM containing 10% fetal bovine serum and penicillin/streptomycin at 37° C. under 5% CO2. The cells were transfected using PolyFect reagent (Qiagen) according to the manufacturer's instructions. Primary cortical neurons from WT or PARP1 KO embryos were prepared. Briefly, the primary cortical neurons were cultured at embryonic day 16 in neurobasal media supplemented with B-27, 0.5 mM L-glutamine, penicillin and streptomycin (Invitrogen, Grand Island, NY). The neurons were replaced to fresh medium every 3-4 days. ABT-888 (10 μM), AG-014699 (1 μM), BMN 673 (10 μM), Z-VAD (20 μM), Nec-1 (20 μM) or 3-MA (500 μM) was pretreated to neurons 1 h before α-syn PFF treatment. α-syn PFF were added at 7 days in vitro (DIV) and further incubated for indicated times followed by cell death assay or biochemical experiments. Primary neurons were infected with AAV2-control sgRNA or AAV2-PARP1 sgRNA (ViGene Bioscineces, Rockville, MD, USA), and AAV-α-syn WT or AAV-α-syn A53T at DIV 4-5.\nPercent of cell death was determined by staining with 7 μM Hoechst 33342 and 2 μM propidium iodide (PI) (Invitrogen, Carlsbas, CA). Images were taken and counted by Zeiss microscope equipped with automated computer assisted software (Axiovision 4.6, Carl Zeiss, Dublin, CA, USA)."}, "SH-SYSY cells": {"tested_on": "SH-SYSY cells", "experiment": "α-syn aggregation and PARP activation in SH-SYSY cells transfected with α-syn (MNNG or PAR delivery)", "assay_type": "cell-based", "details": "for MNNG-induced PARP activation / MNNG-induced α-syn aggregation: 10 μM ABT-888 or 1 μM AG-014699 1 h, then 50 μM MNNG 15 min"}, "α-syn [1]": {"tested_on": "α-syn", "experiment": "In vitro fibrillization of recombinant α-syn (immunoblot, thioflavin T, TEM)", "assay_type": "biochemical, mouse", "details": "for α-syn fibrillization with other polymer or monomer: 5 nM, 36 h"}, "WT mice": {"tested_on": "WT mice", "experiment": "Intrastriatal injection of PAR-α-syn PFF, α-syn PFF or PAR in WT mice", "assay_type": "in vivo, mouse", "text": "There is no significant loss of DA neuron contralateral to the injection side at any time point (FIGS. 81 and 82)."}, "α-syn [2]": {"tested_on": "α-syn", "experiment": "α-syn aggregation and PARP activation in primary cortical neurons transduced with AAV-α-syn (NMDA or PAR delivery)", "assay_type": "cell-based, mouse", "details": "for NMDA-induced PARP activation / NMDA-induced α-syn aggregation: 10 μM ABT-888 or 1 μM AG-014699 1 h, then 500 μM NMDA 5 min"}, "PARP": {"target": "T1, PARP (Mus musculus, UniProt P11103)", "T1 construct": "Primary cortical neurons from WT or PARP1 KO embryos were prepared; endogenous in cells; host or cells: primary mouse cortical neurons (embryonic day 16)", "T1 sequence (P11103 whole entry)": "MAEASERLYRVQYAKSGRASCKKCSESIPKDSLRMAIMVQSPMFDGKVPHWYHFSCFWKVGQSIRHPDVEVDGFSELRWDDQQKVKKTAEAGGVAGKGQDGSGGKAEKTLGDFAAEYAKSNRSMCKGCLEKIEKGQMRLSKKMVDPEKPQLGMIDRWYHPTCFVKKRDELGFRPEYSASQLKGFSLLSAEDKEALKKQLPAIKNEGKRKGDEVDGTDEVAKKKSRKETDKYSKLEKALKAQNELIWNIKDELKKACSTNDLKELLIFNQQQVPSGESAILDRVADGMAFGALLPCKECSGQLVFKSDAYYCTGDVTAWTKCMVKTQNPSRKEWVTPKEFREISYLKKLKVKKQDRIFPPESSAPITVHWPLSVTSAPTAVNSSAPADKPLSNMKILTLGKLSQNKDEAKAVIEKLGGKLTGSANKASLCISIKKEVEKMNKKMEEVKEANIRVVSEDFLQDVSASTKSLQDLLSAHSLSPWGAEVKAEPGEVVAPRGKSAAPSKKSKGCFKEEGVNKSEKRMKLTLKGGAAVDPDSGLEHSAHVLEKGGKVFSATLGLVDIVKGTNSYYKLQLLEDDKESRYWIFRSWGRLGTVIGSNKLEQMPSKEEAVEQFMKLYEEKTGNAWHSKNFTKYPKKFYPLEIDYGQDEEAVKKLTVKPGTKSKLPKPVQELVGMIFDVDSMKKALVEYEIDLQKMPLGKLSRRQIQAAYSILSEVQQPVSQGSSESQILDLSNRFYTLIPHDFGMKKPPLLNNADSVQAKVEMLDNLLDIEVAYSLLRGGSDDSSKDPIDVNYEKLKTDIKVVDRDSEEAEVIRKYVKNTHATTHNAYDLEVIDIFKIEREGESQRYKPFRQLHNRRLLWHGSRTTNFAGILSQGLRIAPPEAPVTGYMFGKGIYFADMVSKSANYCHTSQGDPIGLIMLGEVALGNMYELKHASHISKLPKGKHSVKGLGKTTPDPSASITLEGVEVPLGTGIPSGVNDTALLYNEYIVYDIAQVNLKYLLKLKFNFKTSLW", "experiment": "α-syn PFF-induced PARP activation (PAR accumulation) in primary cortical neurons, western blot", "assay_type": "cell-based", "details": "inhibitor pre-incubated 1 h (ABT-888 10 μM, AG-014699 1 μM, BMN 673 10 μM), then α-syn PFF", "quoted_text": "After homogenization, samples were rotated at 4° C. for 30 min for complete lysis, the homogenate was centrifuged at 15,000 g for 20 min and the supernatants were used for further analysis. Protein levels were quantified using the BCA assay (Pierce, Rockford, Ill., USA), samples were separated using SDS-polyacrylamide gels and transferred onto nitrocellulose membranes. The membranes were blocked with 5% non-fat milk in TBS-T (Tris-buffered saline with 0.1% TWEEN-20® (Polysorbate 20)) for 1 h, probed using primary antibodies (Table 3) and incubated with appropriate HRP-conjugated secondary antibodies. The bands were visualized by ECL substrate.\nPrimary cortical neurons from WT or PARP1 KO embryos were prepared. Briefly, the primary cortical neurons were cultured at embryonic day 16 in neurobasal media supplemented with B-27, 0.5 mM L-glutamine, penicillin and streptomycin (Invitrogen, Grand Island, NY). The neurons were replaced to fresh medium every 3-4 days. […] Primary neurons were infected with AAV2-control sgRNA or AAV2-PARP1 sgRNA (ViGene Bioscineces, Rockville, MD, USA), and AAV-α-syn WT or AAV-α-syn A53T at DIV 4-5."}, "[3]": {"details": "WT cultures, 500 μM NMDA 5 min, 6 h after"}}, "note": "Residues, ends and D or L forms follow the SMILES beside them. *: point of attachment. Cbz = O=C(OCc1ccccc1)*; CH2F = FC*", "data": [{"compound": "CN1C(=O)C(Cc2c[nH]c3ccccc23)NC1=S", "note": "(centres unmarked) [Necrostatin-1]", "values": [{"measurement": "α-syn PFF toxicity (cell death, FIGS. 47 and 48)", "setting": "primary cortical neurons", "result": "had no effect"}]}, {"compound": "Poly(ADP-ribose) [PAR]", "values": [{"measurement": "aggregation of α-syn after exogenous PAR", "setting": "SH-SYSY cells; SH-SYSY WT and SH-SYSY PARP-1 KO cultures", "result": "increased the aggregation of α-syn"}, {"measurement": "neuronal cell death by PAR itself", "setting": "primary cortical neurons; 20 nM, 14 days", "result": "does not cause significant cell death"}, {"measurement": "earliest time different molecular weight forms of α-syn observed", "setting": "α-syn [1]; 5 nM PAR, 37° C.", "result": 24, "unit": "h"}, {"measurement": "fibrillization of α-syn, immunoblot", "setting": "α-syn [1]; 5 nM PAR, 37° C., agitated", "result": "markedly accelerated"}, {"measurement": "effect of temperature on α-syn fibrillization", "setting": "α-syn [1]; 5 nM PAR, indicated temperatures, 72 h", "result": "causes the fibrillization of α-syn at temperatures that are not permissive for α-syn fibrillization in the absence of PAR"}, {"measurement": "PAR concentration of peak α-syn aggregation", "setting": "α-syn [1]; 36 hours", "result": 5, "unit": "nM"}, {"measurement": "α-syn fibrillization at 1 nM PAR", "setting": "α-syn [1]; 36 hours", "result": "capable of enhancing α-syn fibrillization"}, {"measurement": "α-syn fibrillization at 20 nM PAR", "setting": "α-syn [1]; 36 hours", "result": "does not appreciably increase α-syn fibrillization"}, {"measurement": "α-syn fibrils, TEM", "setting": "α-syn [1]; in the presence of PAR, 37° C.", "result": "extensively fibrillated at 12 hours"}, {"measurement": "thioflavin T fluorescence, PAR alone", "setting": "α-syn [1]; without α-syn", "result": "has no effect on thioflavin T fluorescence"}, {"measurement": "fibrillization of α-syn, thioflavin T fluorescence", "setting": "α-syn [1]; α-syn with PAR", "result": "accelerates the fibrillization of α-syn"}, {"measurement": "DA concentration in the contralateral striatum, HPLC", "setting": "WT mice; 1, 3 and 6 months", "result": "no significant difference of DA concentration"}, {"measurement": "DA neuron number after PAR injection by itself", "setting": "WT mice; 1, 3 and 6 months", "result": "has no effect on DA neuron number"}, {"measurement": "pole test", "setting": "WT mice; 3 months", "result": "no significant deficits"}, {"measurement": "aggregation of α-syn after exogenous PAR via Bioporter", "setting": "α-syn [2]; WT and PARP-1 KO cultures transduced with AAV-α-syn", "result": "increases the aggregation of α-syn"}]}, {"compound": "PolyA", "values": [{"measurement": "α-syn fibrillization with other polymer or monomer", "setting": "α-syn [1]; 37° C.", "result": "had no effects on α-syn fibrillization"}]}, {"compound": "C[C@]1(c2nc3c(C(N)=O)cccc3[nH]2)CCCN1", "note": "[ABT-888, veliparib]", "values": [{"measurement": "MNNG-induced PARP activation", "setting": "SH-SYSY cells", "result": "prevent"}, {"measurement": "MNNG-induced α-syn aggregation", "setting": "SH-SYSY cells", "result": "prevent"}, {"measurement": "α-syn PFF-mediated cell death (PI staining)", "setting": "primary cortical neurons", "result": "prevents"}, {"measurement": "α-syn PFF toxicity (cell death, FIGS. 47 and 48)", "setting": "primary cortical neurons", "result": "prevents α-syn PFF toxicity"}, {"measurement": "α-syn PFF-mediated PARP activation", "setting": "PARP", "result": "prevents"}, {"measurement": "NMDA-induced PARP activation", "setting": "α-syn [2]", "result": "prevent"}, {"measurement": "NMDA-induced α-syn aggregation", "setting": "α-syn [2]", "result": "prevent"}]}, {"compound": "Cn1cnc(N)c2ncnc1-2", "note": "[3-Methyladenine]", "values": [{"measurement": "α-syn PFF toxicity (cell death, FIGS. 47 and 48)", "setting": "primary cortical neurons", "result": "had no effect"}]}, {"compound": "Nc1ncnc2c1ncn2[C@@H]1O[C@H](COP(=O)(O)OP(=O)(O)OC[C@H]2OC(O)[C@H](O)[C@@H]2O)[C@@H](O)[C@H]1O", "note": "(some centres unmarked) [ADP ribose monomer, ADP ribose]", "values": [{"measurement": "α-syn fibrillization with other polymer or monomer", "setting": "α-syn [1]; 37° C.", "result": "had no effect on α-syn fibrillization"}]}, {"compound": "CN[C@H](CC(=O)O)C(=O)O", "note": "[NMDA, N-methyl-D-aspartate]", "values": [{"measurement": "activation of PARP, PAR immunoblot", "setting": "α-syn [2]; [3]", "result": "leads to activation of PARP"}, {"measurement": "aggregation of α-syn after NMDA", "setting": "α-syn [2]; [3]", "result": "concomitant aggregation of α-syn"}]}, {"compound": "CNCc1ccc(-c2[nH]c3cc(F)cc4c3c2CCNC4=O)cc1", "note": "[AG-014699, Rucaparib]", "values": [{"measurement": "MNNG-induced PARP activation", "setting": "SH-SYSY cells", "result": "prevent"}, {"measurement": "MNNG-induced α-syn aggregation", "setting": "SH-SYSY cells", "result": "prevent"}, {"measurement": "α-syn PFF-mediated cell death (PI staining)", "setting": "primary cortical neurons", "result": "prevents"}, {"measurement": "α-syn PFF-mediated PARP activation", "setting": "PARP", "result": "prevents"}, {"measurement": "NMDA-induced PARP activation", "setting": "α-syn [2]", "result": "prevent"}, {"measurement": "NMDA-induced α-syn aggregation", "setting": "α-syn [2]", "result": "prevent"}]}, {"compound": "Cn1ncnc1[C@H]1c2n[nH]c(=O)c3cc(F)cc(c23)N[C@@H]1c1ccc(F)cc1", "note": "[BMN 673, Talazoparib]", "values": [{"measurement": "α-syn PFF-mediated cell death (PI staining)", "setting": "primary cortical neurons", "result": "prevents"}, {"measurement": "α-syn PFF-mediated PARP activation", "setting": "PARP", "result": "prevents"}]}, {"compound": "COC(=O)C[C@H](NC(=O)[C@H](C)NC(=O)[C@@H](NC(=O)OCc1ccccc1)C(C)C)C(=O)CF", "note": "[Z-VAD-FMK] (Cbz-Val-Ala-Asp(OMe)-CH2F)", "values": [{"measurement": "α-syn PFF toxicity (cell death, FIGS. 47 and 48)", "setting": "primary cortical neurons", "result": "partially reduces α-syn PFF toxicity"}, {"measurement": "α-syn PFF toxicity (cell death, FIGS. 47 and 48)", "setting": "primary cortical neurons; listed as ZVAD", "result": "modest neuroprotection"}]}]}
